Measurements from patent US20210253518A1, “KINASE INHIBITOR” (NISSAN CHEMICAL CORPORATION, priority 2018, published 2021).
Where two headings read alike, the source gives them in different places.

Experiments:
Test in all cases: Off-chip Mobility Shift Assay (MSA method), kinase inhibition
Type in all cases: biochemical
[1] = target: MSK1 (Homo sapiens, UniProt O75582); conditions: for inhibition at 0.1 µM: read-out: inhibition (%) MSK1
Protocol: (§1) For compound k-1:B-1, inhibitory activity evaluation (calculation of 50% inhibitory concentration (IC50)) was performed on 8 kinds of kinases (CGK2, LATS2, MSK1, p70S6K, PKACα, PKACβ, SGK2, SGK3). The activity was measured using the Off-chip Mobility Shift Assay (MSA method) described below. The compound was added such that the test concentration of k-1:B-1 was in 10 steps from the final concentration of 10 μM to 0.3 nM.
(§2) As an analysis method of the data, the mean signal of the control well containing all reaction components was set to 0% inhibition, the mean signal without enzyme addition was set to 100% inhibition, and the inhibition rate was calculated from the mean signal of 2 wells of each test substance test. The IC50 value was obtained by approximating a plot based on the test substance concentration and inhibition rate to a 4 parameter logistics curve by using the Excel Solver add-in and by the non-linear least squares method.
(§3) 5 μL of k-1:B-1 solution at 4-fold concentration, 5 μL of substrate/ATP/metal solution at 4-fold concentration, and 10 μL of kinase solution at 2-fold concentration, each prepared with assay buffer (20 mM HEPES, 0.01% Triton X-100, 2 mM DTT, pH 7.5), were mixed in the wells of a polypropylene 384-well plate and reacted at room temperature for 1 or 5 hr. Successively, 70 μL of Termination Buffer (QuickScout Screening Assist MSA; Carna Biosciences) was added to discontinue the reaction. Then, the substrate peptide and the phosphorylated peptide in the reaction solution were separated and quantified by the LabChip system (Perkin Elmer). The kinase reaction was evaluated by the resultant product ratio (P/(P+S)) calculated from the substrate peptide peak height (S) and the phosphorylated peptide peak height (P).
(§4) For compounds k-1:H-7, k-1:H-1, k-1:D-1, k-1:J-1, and k-1:B-1, inhibitory rate at 100 nM was calculated on 8 kinds of kinases (CGK2, LATS2, MSK1, p70S6K, PKACα, PKACβ, SGK2, SGK3). The activity was measured using the MSA method. As an analysis method of the data, the mean signal of the control well containing all reaction components was set to 0% inhibition, the mean signal without enzyme addition was set to 100% inhibition, and the inhibition rate was calculated from the mean signal of 2 wells of each test substance test.
as §3, with “a compound” for “k-1:B-1”

[2] = target: p70S6K (Homo sapiens, UniProt P23443); conditions: for inhibition at 0.1 µM: read-out: inhibition (%) p70S6K
Chain of p70S6K (P23443 whole entry): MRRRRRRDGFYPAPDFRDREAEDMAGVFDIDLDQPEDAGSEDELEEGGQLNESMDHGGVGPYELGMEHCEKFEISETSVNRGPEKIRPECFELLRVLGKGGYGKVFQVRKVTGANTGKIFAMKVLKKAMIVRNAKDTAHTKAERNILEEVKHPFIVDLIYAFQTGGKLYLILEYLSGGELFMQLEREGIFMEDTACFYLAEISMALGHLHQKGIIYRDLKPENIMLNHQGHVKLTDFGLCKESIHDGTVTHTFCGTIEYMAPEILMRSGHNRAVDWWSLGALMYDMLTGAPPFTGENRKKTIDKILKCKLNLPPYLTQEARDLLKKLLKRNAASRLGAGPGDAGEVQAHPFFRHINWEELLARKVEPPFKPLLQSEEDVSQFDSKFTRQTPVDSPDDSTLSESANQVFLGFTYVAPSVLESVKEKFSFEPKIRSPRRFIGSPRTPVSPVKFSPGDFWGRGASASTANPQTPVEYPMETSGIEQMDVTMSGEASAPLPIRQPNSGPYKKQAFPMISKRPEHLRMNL
Protocol: as §1, §2, §3, §4
as §3, with “a compound” for “k-1:B-1”

[3] = target: T1, SGK2 (Homo sapiens, UniProt Q9HBY8); conditions: for inhibition at 0.1 µM: read-out: inhibition (%) SGK2
T1 sequence (Q9HBY8 1-367): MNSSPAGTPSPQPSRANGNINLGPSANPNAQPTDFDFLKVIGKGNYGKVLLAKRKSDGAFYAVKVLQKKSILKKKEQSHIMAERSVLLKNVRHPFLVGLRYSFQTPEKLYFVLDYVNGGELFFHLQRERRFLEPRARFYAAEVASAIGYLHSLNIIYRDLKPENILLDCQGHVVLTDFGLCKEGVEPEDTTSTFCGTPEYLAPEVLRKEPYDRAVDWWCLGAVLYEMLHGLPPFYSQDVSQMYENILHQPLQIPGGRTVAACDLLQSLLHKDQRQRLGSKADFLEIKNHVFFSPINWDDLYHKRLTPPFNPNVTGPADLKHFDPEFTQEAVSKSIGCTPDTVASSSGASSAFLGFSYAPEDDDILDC
Protocol: as §1, §2, §3, §4
as §3, with “a compound” for “k-1:B-1”

[4] = target: PKACα (Homo sapiens, UniProt P17612); conditions: for inhibition at 0.1 µM: read-out: inhibition (%) PKACα
Protocol: as §1, §2, §3, §4
as §3, with “a compound” for “k-1:B-1”

[5] = target: PKACβ (Homo sapiens, UniProt P22694); conditions: for inhibition at 0.1 µM: read-out: inhibition (%) PKACβ
Protocol: as §1, §2, §3, §4
as §3, with “a compound” for “k-1:B-1”

[6] = target: T2, SGK3 (Homo sapiens, UniProt Q96BR1); conditions: for inhibition at 0.1 µM: read-out: inhibition (%) SGK3
T2 sequence (Q96BR1 1-496): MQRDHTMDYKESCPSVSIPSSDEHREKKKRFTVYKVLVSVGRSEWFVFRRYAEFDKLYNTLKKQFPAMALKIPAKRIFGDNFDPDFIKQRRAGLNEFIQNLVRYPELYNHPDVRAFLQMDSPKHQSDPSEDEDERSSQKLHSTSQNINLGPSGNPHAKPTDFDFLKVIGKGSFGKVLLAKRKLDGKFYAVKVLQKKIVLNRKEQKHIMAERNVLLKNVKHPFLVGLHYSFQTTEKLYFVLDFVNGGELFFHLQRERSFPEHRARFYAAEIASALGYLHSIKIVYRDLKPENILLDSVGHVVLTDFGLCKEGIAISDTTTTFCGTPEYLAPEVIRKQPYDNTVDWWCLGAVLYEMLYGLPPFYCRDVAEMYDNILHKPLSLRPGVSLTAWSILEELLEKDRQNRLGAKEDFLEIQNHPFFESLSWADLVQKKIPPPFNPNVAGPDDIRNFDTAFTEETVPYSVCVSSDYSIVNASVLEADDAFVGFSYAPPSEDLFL
Protocol: as §1, §2, §3, §4
as §3, with “a compound” for “k-1:B-1”

[7] = MSA method, 10 steps from 10 μM to 0.3 nM

Chain of MSK1 (O75582 whole entry): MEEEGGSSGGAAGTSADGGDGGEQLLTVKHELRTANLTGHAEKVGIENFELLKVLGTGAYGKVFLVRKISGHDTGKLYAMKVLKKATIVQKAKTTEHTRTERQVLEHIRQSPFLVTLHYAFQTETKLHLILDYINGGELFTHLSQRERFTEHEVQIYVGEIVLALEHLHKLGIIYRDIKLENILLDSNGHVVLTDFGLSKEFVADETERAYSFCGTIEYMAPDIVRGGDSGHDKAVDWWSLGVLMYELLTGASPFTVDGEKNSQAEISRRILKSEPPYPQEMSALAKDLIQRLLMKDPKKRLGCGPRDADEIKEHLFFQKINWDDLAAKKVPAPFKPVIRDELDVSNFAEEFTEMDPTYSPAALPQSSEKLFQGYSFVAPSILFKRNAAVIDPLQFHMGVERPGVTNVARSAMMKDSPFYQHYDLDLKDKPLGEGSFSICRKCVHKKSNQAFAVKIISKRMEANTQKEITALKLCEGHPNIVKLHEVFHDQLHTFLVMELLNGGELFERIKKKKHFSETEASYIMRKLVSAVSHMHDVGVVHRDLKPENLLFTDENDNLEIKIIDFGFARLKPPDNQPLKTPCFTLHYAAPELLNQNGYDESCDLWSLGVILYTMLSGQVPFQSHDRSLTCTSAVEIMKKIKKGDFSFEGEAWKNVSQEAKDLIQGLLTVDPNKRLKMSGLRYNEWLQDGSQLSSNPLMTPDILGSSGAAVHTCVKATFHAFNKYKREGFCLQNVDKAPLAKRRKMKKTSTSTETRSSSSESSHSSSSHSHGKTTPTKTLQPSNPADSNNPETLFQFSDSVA

| inhibition at 0.1 µM ([1]; at 100 nM, MSA method) | inhibition at 0.1 µM ([2]; at 100 nM, MSA method) | inhibition at 0.1 µM ([3]; at 100 nM, MSA method) | inhibition at 0.1 µM ([4]; at 100 nM, MSA method) | inhibition at 0.1 µM ([5]; at 100 nM, MSA method) | inhibition at 0.1 µM ([6]; at 100 nM, MSA method) | IC50 [1, 7] | IC50 [2, 7] | IC50 [3, 7] | IC50 [4, 7] | IC50 [5, 7] | IC50 [6, 7] | SMILES | inhibition at 0.1 µM [1] | inhibition at 0.1 µM [2] | inhibition at 0.1 µM [3] | inhibition at 0.1 µM [4] | inhibition at 0.1 µM [5] | inhibition at 0.1 µM [6] |
| --- | --- | --- | --- | --- | --- | --- | --- | --- | --- | --- | --- | --- | --- | --- | --- | --- | --- | --- |
| – | – | – | – | – | – | – | – | – | – | – | – | CC/C(=N\NC(=O)CNc1cccc(O)c1)c1ccc(O)c(C)c1O [k-1:D-1] | 101% | 97.9% | 99.9% | 99.7% | 98.5% | 93.6% |
| 94.9% | 70.3% | 84.3% | 77.7% | 72% | 44.4% | – | – | – | – | – | – | CCC(=NNC(=O)C(CC)Nc1ccccc1)c1ccc(O)c(C)c1O (stereo not drawn) [k-1:H-7] | – | – | – | – | – | – |
| 87.7% | 67.6% | 87.3% | 82.8% | 80.1% | 65.9% | 17.4 nM | 41.5 nM | 13.2 nM | 23.4 nM | 29.3 nM | 63.3 nM | CC/C(=N\NC(=O)C(C)Nc1ccccc1)c1ccc(O)c(C)c1O (stereo not drawn) [k-1:B-1] | – | – | – | – | – | – |
| 99.7% | 82% | 93.6% | 92.1% | 87.7% | 73.7% | – | – | – | – | – | – | CCC(=NNC(=O)CNc1ccccc1)c1ccc(O)c(C)c1O [k-1:H-1] | – | – | – | – | – | – |
| – | – | – | – | – | – | – | – | – | – | – | – | CC/C(=N\NC(=O)NCc1cccc(O)c1)c1ccc(O)c(C)c1O [k-1:J-1] | 99.6% | 78.3% | 95.1% | 94% | 89.7% | 82.5% |
